# From patent US20200375963A1 (priority 2017, published 2020)
# What was measured:
# Format in all cases: cell-based, human
# [1] = system: HIF-1α; assay: HIF-1α immunoblot of HEK293T cells
# Experimental: (§1) Leukoreduction filters (Terumo BCT, Lakewood, Colo.), waste products of platelet donation process, were used to isolate PBMCs by an IRB-approved protocol. PBMCs were isolated using Histopaque-1077 (Sigma). Monocyte-enriched PBMCs (MEPs) were prepared using cold-aggregation method with slight modifications (30,60) Monocytes were isolated from MEPs or PBMCs using EasySep Human CD14 Positive Selection Kit (STEMCELL Technologies). Flow cytometric verification of isolated CD14+ cells were performed using RPCI core facility services. The MEPs were cultured at an average density of 25-35×10^6/ml in 1 or 2 ml per well in 6- or 12-well standard tissue culture plates under standard conditions (37° C./5% CO2) in RPMI-1640 medium with 10% FBS, 100 U/ml penicillin and […] streptomycin (Mediatech). Isolated CD14+ and CD14− cells were cultured at approximately 5×10^6 cell/ml and 7×10^6 cells per ml densities, respectively. THP-1 and TLA-HEK293T cell lines were purchased from ATCC, and Open Biosystems®, respectively, and cultured in recommended conditions. THP-1 cells were cultured in 10^6 cells per 100 μl in 96-well culture plates in ATCC-formulated-1640 medium (30-2001), whereas 293T cells were cultured in DMEM medium supplemented with 10% FBS.
# (§2) Cells were cultured under 1% or 6% O2, 5% CO2 and 94% N2 at 37° C. using Xvivo System (Biospherix). Human ‘universal’ type I IFN was obtained from PBL Assay Science and used at 600 U/ml. Atpenin A5 (Cayman chemical #11898), myxothiazol (Sigma-Aldrich, #T5580) and 2-Thenoyltrifluoroacetone (TTFA) (Sigma-Aldrich, #T27006) were used at 1-2 μM and 400 μM final concentrations, respectively. DFO (Sigma-Aldrich #D9533) and DMOG (Sigma-Aldrich #D3695) were used in 0.5 mM and 1.0 mM final concentrations, respectively.
# (§3) 2× Laemmeli buffer (BIO-RAD) was used to prepare whole cell lysates. The lysate resuspended in the Laemmeli buffer was heated at 95° C. for 15 minutes, and 40 μl of the sample was used to perform gel electrophoresis on pre-cast, 4%-15% gradient polyacrylamide gels (Mini-PROTEAN TGX, Bio-Rad) in Laemmeli buffer system. Mouse monoclonal anti-HIF1α (product number GTX628480, GT10211; 1:1000 dilution) and mouse monoclonal anti-β-actin (product number AM4302, AC-15; 1:15,000 dilution) was used to detect HIF-1α or actin, respectively followed by incubation with HRP-conjugated goat anti-mouse antibodies (Life Technologies) at 1:2000 dilution.
# [2] = system: HIF-1α; assay: HIF-1α immunoblot of CD14+ and CD14− primary cells
# Experimental: as §1, §2, §3
# [3] = system: monocyte-enriched PBMCs (MEPs); assay: L-Lactate levels in extra-cellular media of MEPs; conditions: supernatants of the oxygen consumption assay
# Experimental: (§4) We first measured oxygen consumption and L-lactate levels to confirm the effect of AtA5 and MXT on mitochondrial respiration in MEPs. We used a phosphorescent oxygen probe (MitoXpress-Xtra) which is quenched by oxygen. Cellular respiration in a closed system depletes oxygen and increases the fluorescence. […] Normoxic induction of RNA editing by MXT is also confirmed in a separate experiment from three additional donors (FIG. 11).
# (§5) Oxygen consumption was measured using phosphorescent oxygen probe, MitoXpress-Xtra (Cayman Dual Assay Kit, item no. 601060). Monocytes were enriched to >50% purity by short-term cold aggregation and first cultured in standard conditions for 24 hours without treatment to stimulate metabolic activity. Cells were then centrifuged at 200×g for 7 minutes and resuspended in 1 ml RPMI/1% FBS with or without mitochondrial inhibitors. Cells are covered by mineral oil after addition of MitoXpress-Xtra following manufacturer's protocol. The fluorescence was kinetically measured on a plate reader (Synergy H1) at 20 sec intervals for approximately 3 hours (delay 70 μsec, collection time 30 μsec). Supernatants of the oxygen consumption assay were used to measure L-lactate levels following manufacturer's instructions.
# [4] = system: HIF-1α; assay: HIF-1α immunoblot of THP-1 cells; conditions: THP-1, hypoxia 1% O2, 24 hours
# Experimental: as §1
# Cells were cultured under 1% or 6% O2, 5% CO2 and 94% N2 at 37° C. using Xvivo System (Biospherix). […]
# [5] = system: hypoxia-regulated genes (ELL2, VEGFA) in 293T cells; assay: RT-qPCR of hypoxia-regulated genes in 293T cells; conditions: normoxia and hypoxia (1% O2), 24 hours
# Experimental: (§6) Leukoreduction filters (Terumo BCT, Lakewood, Colo.), waste products of platelet donation process, were used to isolate PBMCs by an IRB-approved protocol. PBMCs were isolated using Histopaque-1077 (Sigma). Monocyte-enriched PBMCs (MEPs) were prepared using cold-aggregation method with slight modifications (30,60) Monocytes were isolated from MEPs or PBMCs using EasySep Human CD14 Positive Selection Kit (STEMCELL Technologies). Flow cytometric verification of isolated CD14+ cells were performed using RPCI core facility services. […]
# (§7) RNA and plasmid DNA were isolated with commercial kits (TRIzol, Life Technologies and Qiagen, respectively). RNA/DNA was quantified by Nanodrop 2000 (Thermo Fisher). Proteins were quantified using Bio-Rad Dc assay with BSA standards. […] SDHB c.136C>U RNA editing was quantified by allele specific RT-qPCR PCR oligonucleotide primers (FIG. 13) were obtained from Integrated DNA Technologies, Inc. ADM, ELL2, HILPDA, NGLY1, MET, TKTL1, VEGFA and B2M gene expression levels was assessed by qPCR using FastStart Taq DNA polymerase and SYBR Green I dye on a LightCycler 480 System (Roche). Quantification cycle values were calculated by the instrument software using the maximum second derivative method and the mean quantification cycle value of duplicate PCR reactions was used for analysis. […]
# [6] = system: monocyte-enriched PBMCs (MEPs); assay: Oxygen consumption in MEPs (MitoXpress-Xtra phosphorescent oxygen probe); conditions: approximately 3 hours, n=3 donors
# Experimental: as §4, §5
# [7] = system: hypoxia-regulated genes (HILPDA, VEGFA) in THP-1 cells; assay: RT-qPCR of hypoxia-regulated genes in THP-1 cells; conditions: THP-1, normoxia or hypoxia (1%), 24 hours, HILPDA and VEGFA
# Experimental: as §6, §7
# [8] = system: hypoxia-response elements (HRE) from PGK1, a HIF-1α target gene; assay: HRE-luciferase reporter in HEK293T cells; conditions: 293T
# Experimental: It is possible that HIF-1α may have degraded depending on cell type, time of analysis (24 h) or another factor. Therefore, we further examined the effect of AtA5 in HEK293T embryonic kidney cell line and THP-1 monocytic leukemia cell line over a 24 hour period. Several studies in cell lines have reported normoxic stabilization of HIF-1α upon knocking down MTCII (Selak et al., (2005), Cancer. Cell, 7, 77-85, Guzy et al., (2008), Mol. Cell. Biol., 28, 718-731, Cervera et al., (2008), Cancer Res., 68, 4058-4067). […] Since AtA5 appeared to suppress HIF-1α in mild hypoxia, we exposed the cells to both 6% and 1% O2. […] To confirm the suppression of HIF-regulated gene expression, we used a plasmid construct expressing firefly luciferase under the control of three hypoxia-response elements […] from PGK1, a HIF-1α target gene.
# HEK293T cells were cotransfected with the 400 ng of HRE-luciferase (Addgene, plasmid #26731), 1 ng of pRL-SV40 plasmid, 600 ng of pcDNA 3.1(+) (control empty vector) per well at ˜50-60% confluency using jetPRIME (Polyplus-transfection) in 12-well culture plates as per the manufacturer's instructions. Transfection efficiency was 60%-80% as assessed by fluorescent microscopy of cells co-transfected with the pLemiR plasmid DNA (Open Biosystems) for expression of a red fluorescent protein. Cells were harvested 2 days after transfection for measurement of their HRE and Renilla luciferase activities using Dual-Luciferase Reporter Assay System (Promega). HRE expression was quantified as a ratio of HRE/Renilla luciferase activities.
# [9] = system: A3A-mediated RNA editing (SDHB c.136 C>U) in monocyte-enriched PBMCs (MEPs); assay: SDHB c.136 C>U RNA editing in monocyte-enriched PBMCs (allele specific RT-qPCR)
# Experimental: as §1, §2
# RNA and plasmid DNA were isolated with commercial kits (TRIzol, Life Technologies and Qiagen, respectively). RNA/DNA was quantified by Nanodrop 2000 (Thermo Fisher). Proteins were quantified using Bio-Rad Dc assay with BSA standards. RNA was reverse transcribed with the Transcriptor First Strand cDNA Synthesis (Roche) kit. SDHB c.136C>U RNA editing was quantified by allele specific RT-qPCR PCR oligonucleotide primers (FIG. 13) were obtained from Integrated DNA Technologies, Inc. ADM, ELL2, HILPDA, NGLY1, MET, TKTL1, VEGFA and B2M gene expression levels was assessed by qPCR using FastStart Taq DNA polymerase and SYBR Green I dye on a LightCycler 480 System (Roche). Quantification cycle values were calculated by the instrument software using the maximum second derivative method and the mean quantification cycle value of duplicate PCR reactions was used for analysis. Delta delta CT method is used to infer gene expression changes.
# [10] = system: hypoxia-related gene expression in CD14+ monocytes; assay: Gene expression in CD14+ monocytes (RNA seq, RT-qPCR); conditions: isolated CD14+ monocytes, normoxia, 1 day, n=3 donors
# [11] = HEK293T, normoxia, 24 hours, DMOG 1 mM, DFO 0.5 mM, AtA5 1 μM
compound,measurement,setting,value
CC(=O)N(O)CCCCCNC(=O)CCC(=O)N(O)CCCCCNC(=O)CCC(=O)N(O)CCCCCN.CS(=O)(=O)O [DFO],stabilization of HIF-1α,[1]; [11],stabilized HIF-1α in normoxia
COC(=O)CNC(=O)C(=O)OC [DMOG],stabilization of HIF-1α,[1]; [11],stabilized HIF-1α in normoxia
same,HIF-1α stabilization (western blot),"[2]; normoxia, CD14+ and CD14− cells isolated after culture of MEPs for 1 or 2 days",caused robust normoxic stabilization of HIF-1α
"CO/C(=C/C(N)=O)[C@H](C)[C@H](/C=C/c1csc(-c2csc([C@@H](C)/C=C/C=C/C(C)C)n2)n1)OC [MXT, myxothiazol]",L-Lactate levels,[3],increased relative to the degree of respiratory inhibition
same,stabilization of HIF-1α,[4],inhibited it even at 1% O2
same,expression of hypoxia-regulated genes,[5],suppressed
same,oxygen consumption,[6],completely suppressed oxygen consumption
same,expression of hypoxia-regulated genes,[7],suppressed
same,HRE-driven expression (ratio of HRE/Renilla luciferase activities),"[8]; 1% O2, 24 hours",inhibited HRE-driven expression
same,HRE-driven expression (ratio of HRE/Renilla luciferase activities),"[8]; 6% O2, 24 hours",inhibited HRE-driven expression
same,stabilization of HIF-1α,"[1]; 293T, 1% O2, 24 hours",inhibited it both at 6% O2 and 1% O2
same,stabilization of HIF-1α,"[1]; 293T, 6% O2, 24 hours",inhibited it both at 6% O2 and 1% O2
same,SDHB c.136 C>U RNA editing,"[9]; inhibitor jointly with hypoxia (1% O2), compared to hypoxia alone",no statistically significant effect
same,SDHB c.136 C>U RNA editing,[9]; mild hypoxia (6% O2),increased the editing level
same,SDHB c.136 C>U RNA editing,"[9]; normoxia, 1-3 days",induced SDHB mRNA editing in normoxia
same,HIF-1α stabilization (western blot),"[2]; hypoxia (1% O2), monocytes isolated from PBMCs then cultured 24 hours, three donors",appeared to enhance the stabilization of HIF-1α in hypoxic monocytes in two of three donors
same,HIF-1α stabilization (western blot),"[2]; normoxia, monocytes isolated from PBMCs then cultured 24 hours",did not robustly stabilize HIF-1α
same,mRNA expression of VEGFA and HILPDA,[10],statistically significantly increased
"O=C(CC(=O)C(F)(F)F)c1cccs1 [TTFA, 2-Thenoyltrifluoroacetone]",SDHB c.136 C>U RNA editing,"[9]; normoxia, 1-3 days",also induced RNA editing in normoxia
